# Experimental data from publication PMC6154605, “Multi-Anti-Parasitic Activity of Arylidene Ketones and Thiazolidene Hydrazines against Trypanosoma cruzi and Leishmania spp” (Molecules : A Journal of Synthetic Chemistry and Natural …, 2017).
# Like-named read-outs stand apart in the source and are kept apart here. Marks after values point to notes of the source that are not given here.
# Experiments:
# [1] = system: T. cruzi epimastigotes, Tulahuen 2 strain (genotype TcVI); details: cited from earlier work; for IC50: read-out: IC50 ± SD Epimastigotes T. cruzi; for SI J774.1/ T. cruzi: ratio IC50 mammalian cell / IC50 parasite (epimastigotes)
# [2] = system: J774.1 murine macrophages; details: read-out: IC50 ± SD Murine Macrophages, cited from earlier work
# [3] = system: L. braziliensis promastigotes; set-up: method as in PMID 24749923; details: footnote c; read-out: IC50 ± SD Promastigotes L. braziliensis; cited from earlier work
# [4] = system: T. cruzi epimastigotes, Tulahuen 2 strain (genotype TcVI); assay: In vitro anti-T. cruzi activity, growth inhibition of epimastigotes; assay type: cell-based, Trypanosoma cruzi; details: ratio IC50 mammalian cell / IC50 parasite (epimastigotes)
# Protocol: For the in vitro anti-T. cruzi activity, we used epimastigotes of the Tulahuen 2 strain (genotype TcVI) grown in an axenic milieu (BHI-Tryptose). Cells from a 5–7-day-old culture were inoculated in fresh culture milieu to give an initial concentration of 1.00 × 10^6 cells/mL. The absorbance at 600 nm of the cells in culture was measured every day. At Day 5, the milieu was inoculated with different quantities of the compounds from a stock solution in DMSO (DMSO concentration in the culture milieu never exceeded 0.4%). The control was made in the presence of 0.4% DMSO and in the absence of compounds. Each concentration of compound was evaluated in duplicate. At Day 5, the absorbance of the culture was measured and related to the control. […] Each antiproliferative experiment was done in duplicate, and each concentration was tested in triplicate.
# [5] = system: L. braziliensis promastigotes; assay: Leishmanicidal activity on promastigotes, resazurin; assay type: cell-based, Leishmania braziliensis; details: for SI NCTC/ L. braziliensis: ratio IC50 mammalian cell / IC50 parasite (promastigotes); for IC50: Leishmania braziliensis, 48 h, read-out: IC50 ± SD Promastigotes L. braziliensis
# Text: (§1) We initially selected compounds previously reported to have anti-T. cruzi activity from our chemical library to evaluate their leishmanicidal activity. […]. To evaluate their activity in Leishmania spp., we performed a phenotypic screening using the promastigote form of L. infantum (MHOM/FR/91/LEM-2259) and L. braziliensis ([…]) (Table 1A for the thiazolidenehydrazine derivate and Table 1B for the arylideneketones family).
# (§2) A culture of L. braziliensis (MHOM/BR/75/M2904) and L. infantum (MHOM/FR/91/LEM2259V) was obtained from the Facultad de Farmacia (Universidad Complutense, Madrid, Spain). The maintenance of the strains, the form of cultivation and the isolation of the shape of the promastigote were performed following the procedures described by Roldos et al.. The promastigotes were grown at 22 °C in Schneider’s Drosophila medium supplemented with 20% FBS. The assay was performed using a modification of a previous method. Promastigotes (2 × 10^6 parasites/well) were cultivated in 96-well plastic plates. Compounds were dissolved in dimethylsulfoxide (DMSO). Different dilutions of the compounds with a final volume up to 200 µL were added. After 48 h at 26 °C, 20 µL of a 2 mM resazurin solution were added, and the oxidation-reduction was quantified at 570 and 600 nm. The solution of resazurin was prepared at 2.5 mM in phosphate buffered solution (PBS), pH 7.4, and filtered through 0.22-µm membranes prior to use. All tests were carried out in triplicate. Resazurin sodium salt was obtained from Sigma-Aldrich (St. Louis, MO, USA) and stored at 4 °C protected from light. The efficacy of each compound was estimated by calculating the IC50 values. Each antiproliferative experiment was done in duplicate, and each concentration was tested in triplicate.
# [6] = system: L. infantum promastigotes; set-up: method as in PMID 11913540; details: superscript b printed; previously reported compound; read-out: IC50 ± SD Promastigotes L. infantum; cited from earlier work
# NCTC929 fibroblasts = assay: Nonspecific cytotoxicity on fibroblasts, resazurin; assay type: cell-based; details: NCTC-929, 24 h; read-out: IC50 ± SD Fibroblast NCTC929
# Protocol: To establish the selectivity of the compounds against the parasites, nonspecific cytotoxicity against mammalian cells, using J774.1 murine macrophages and fibroblast NCTC929, was studied for the most relevant derivatives. The selectivity indexes were calculated as the ratio between cytotoxicity for mammalian cells and the anti-parasitic activity (Table 2).
# NCTC-Clone 929 were grown in minimal essential medium (Sigma) supplemented with 10% heat-inactivated FBS, penicillin G (100 U/mL) and streptomycin (100 µg/mL). Cell cultures were maintained at 37 °C in a humidified 5% CO2 atmosphere. The procedure for cell viability measurement was evaluated with resazurin by a colorimetric method. The cells were plated in 96 microtiter plates at 3.00 × 10^4 cells/well in 100 µL growth medium. The cells were grown overnight at 37 °C, 5% CO2. Thereafter, the medium was removed, and the compounds were added to 200 µL of medium for 24 h. After incubation, 20 µL of a 2 mM resazurin solution were added to each well. The plates were incubated for 3 h to allow optimal oxidation-reduction. The reduction of resazurin was determined by dual wavelength absorbance measurement at 490 and 595 nm. The background was subtracted. Each concentration was assayed three times. Medium and drug controls were used in each test as blanks.
# [7] = target: T1, triosephosphate isomerase from T. cruzi (TcTIM) (Trypanosoma cruzi, UniProt P52270); set-up: made in house; host or cells: Escherichia coli; details: cited from earlier work; for Percentage of Inhibition TcTIM: at 100 µM; for IC50: read-out: IC50 ± SD TcTIM
# cruzipain [8] = target: T2, cruzipain (Trypanosoma cruzi, UniProt P25779); details: at 100 µM; cited from earlier work
# [9] = target: T3, LmTIM (triosephosphate isomerase from Leishmania mexicana) (Leishmania mexicana, UniProt P48499); assay: Inhibition of triosephosphate isomerase; assay type: biochemical; details: for IC50: read-out: IC50 ± SD LmTIM; for inhibition at 100 µM: read-out: Percentage of Inhibition LmTIM
# T3 construct: made in house; host or cells: Escherichia coli
# Protocol: Compounds were dissolved in DMSO. […] The experiments were performed in triplicate.
# [10] = system: L. infantum promastigotes; assay: Leishmanicidal activity on promastigotes, resazurin; assay type: cell-based, Leishmania infantum; details: for IC50: Leishmania infantum, 48 h, read-out: IC50 ± SD Promastigotes L. infantum; for SI NCTC/ L. infantum: ratio IC50 mammalian cell / IC50 parasite (promastigotes)
# Text: as §1, §2
# zebrafish embryos = assay: Zebrafish embryo toxicity test (LD50)
# Protocol: […] Only embryos that were clearly undamaged after 60 min of observation were kept and subsequently used. Dechorionated embryos were further manipulated using flame-rounded tip glass Pasteur pipettes. […] In all cases, the embryos were incubated in system water with 1% DMSO (negative control) and the compound at different doses between 8 and 96 hpf. The treatment solution was changed daily. […] At selected time points, namely 24, 48, 72 and 96 hpf, embryotoxicity (= mortality) and morphological characteristics of the embryos were evaluated using a Nikon SMZ800 stereomicroscope. The embryos were evaluated for the presence and morphological development (as appropriate) of somites, tail detachment, eyes, heart beat and blood circulation. All individuals were evaluated at all time points.
# T. cruzi = details: 100 mg/kg body weight in mice, acute model; cited from earlier work
# T. cruzi amastigotes = system: T. cruzi amastigotes; set-up: method as in PMID 26492824, PMID 24749923, doi:10.1039/C6RA27851E; details: 5 µM, 72 h; cited from earlier work
# [11] = target: T1, triosephosphate isomerase from T. cruzi (TcTIM); assay: Inhibition of triosephosphate isomerase; details: read-out: Percentage of Inhibition TcTIM
# Protocol: Expression and purification of proteins: TcTIM, LmTIM and HsTIM were expressed in Escherichia coli and purified as described in the literature [39]. […] Before use, extensive dialysis against 100 mM triethanolamine/10 mM EDTA (pH 7.4) was performed.
# Enzymatic activity assays: Enzymatic activity was determined following the conversion of glyceraldehyde 3-phosphate into dihydroxyacetone phosphate. […] The reaction mixture (1 mL, pH 7.4) contained 100 mM triethanolamine, 10 mM EDTA, 0.2 mM NADH, 1 mM glyceraldehyde 3-phosphate and 0.9 units of α-glycerol phosphate dehydrogenase. The reaction was initiated by the addition of 5 ng/mL of the TcTIM.
# The mixture also contained the compounds at the indicated concentrations. Compounds were dissolved in DMSO. After 2 h, 10 µL was withdrawn and added to a final volume of 100 µL of the reaction mixture for the activity assay. The inhibition assay was performed in a 96-well microplate Varioskan spectrophotometer. […] The experiments were performed in triplicate.
# cruzipain [12] = target: T2, cruzipain; assay: Inhibition of T. cruzi cruzipain; assay type: biochemical
# Protocol: Cruzipain was purified to homogeneity from epimastigotes of the Tulahuen 2 strain by ConA–Sepharose affinity chromatography, as previously described. Cruzipain (2.5 μM ε = 58,285 M^−1cm^−1) was incubated in 50 mM acetate buffer pH 5.5 with 5 mM DTT, and 100 μM inhibitor were added, shaking the solution for 15 min at 27 °C. The derivatives were added as solutions in DMSO, and the controls contained the same solvent concentration. The concentration of DMSO never exceeded 1% in the reaction medium. L-leucylam-ido(4-guanidino)butane (E-64) was used as a positive control of inhibition. Then, the fluorogenic substrate Z-Phe-Arg 7-amido-4-methylcoumarin hydrochloride (Z-Phe-Arg-AMC) at 10 μM was added, and the fluorescence was measured during 10 min at intervals of 3 s (excitation at 380 nm and emission at 460 nm) using a Varioskan Flash Spectrophotometer. From the slope of the negative control, we calculated the total (100%) enzyme activity, while the slopes obtained in the presence of the compounds yielded the percentage of remaining enzyme activity. The percentage of enzyme inhibition was determined as […]. The experiments were done in duplicate.
# T1 sequence (P52270 whole entry): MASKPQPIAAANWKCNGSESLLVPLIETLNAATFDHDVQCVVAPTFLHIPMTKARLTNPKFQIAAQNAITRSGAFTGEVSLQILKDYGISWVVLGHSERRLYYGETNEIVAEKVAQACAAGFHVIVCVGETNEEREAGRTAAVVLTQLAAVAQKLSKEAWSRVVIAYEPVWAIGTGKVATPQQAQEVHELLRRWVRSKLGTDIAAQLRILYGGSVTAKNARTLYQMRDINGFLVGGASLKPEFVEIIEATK
# T3 sequence (P48499 whole entry): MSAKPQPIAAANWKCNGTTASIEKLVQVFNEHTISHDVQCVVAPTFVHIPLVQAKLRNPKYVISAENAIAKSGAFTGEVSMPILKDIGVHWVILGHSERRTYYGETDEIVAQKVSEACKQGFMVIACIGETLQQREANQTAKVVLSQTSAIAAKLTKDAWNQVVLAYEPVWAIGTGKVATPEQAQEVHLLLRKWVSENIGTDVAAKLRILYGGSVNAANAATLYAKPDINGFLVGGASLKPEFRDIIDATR
# T2 sequence (P25779 123-467): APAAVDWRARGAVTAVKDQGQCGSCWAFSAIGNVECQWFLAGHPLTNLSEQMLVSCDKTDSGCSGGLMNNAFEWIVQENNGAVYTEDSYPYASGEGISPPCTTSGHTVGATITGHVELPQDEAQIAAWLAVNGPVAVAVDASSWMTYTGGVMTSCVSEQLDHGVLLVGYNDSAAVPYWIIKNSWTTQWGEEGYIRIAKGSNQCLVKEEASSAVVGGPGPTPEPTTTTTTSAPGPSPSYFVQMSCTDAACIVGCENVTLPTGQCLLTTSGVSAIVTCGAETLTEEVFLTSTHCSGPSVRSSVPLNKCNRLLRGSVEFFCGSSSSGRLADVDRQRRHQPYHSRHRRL
SMILES,IC50 [1],IC50 [2],SI J774.1/ T. cruzi [4],SI NCTC/ L. braziliensis [5],SI J774.1/ T. cruzi [1],IC50 (NCTC929 fibroblasts),IC50 ([2]; J774.1),Percentage of Inhibition TcTIM [7],IC50 [7],Percentage of Inhibition Cruzipain (cruzipain [8]),IC50 [9],inhibition at 100 µM [9],IC50 [10],SI NCTC/ L. infantum [10],IC50 [5],further results
"O=C1/C(=C/c2cccc3cnccc23)CC/C1=C\c1cccc2cnccc12 [Comp13, reference compound]",31 ± 2 µM,21 ± 5 µM,1,23,–,–,–,–,–,–,–,–,–,–,–,IC50 [3]: 900 ± 200 nM
"COc1cc(/C=C/C(=O)CC(=O)/C=C/c2ccc(O)c(OC)c2)ccc1O [Curcumin, reference compound]",5.6 ± 1 µM,10 ± 2 µM,2,2,–,–,–,–,–,–,–,–,–,–,–,IC50 [6]: 5.9 ± 0.3 µM
CC(/C=C/C(=O)/C=C/C(C)=C/c1ccco1)=C\c1ccco1 [EA155],8.2 ± 2 µM,–,–,34,4 ^c,543 ± 15 µM,33 ± 8 µM,100,3300 nM,0/- ^d,< 25 µM,100%,6 ± 1 µM,91,16 ± 2 µM,–
C=CCn1c(C(=O)N2CCN(C/C=C/c3ccccc3)CC2)cs\c1=N/N=C/C=C/c1ccco1 [HIT1],3.1 ± 0.2 µM,–,10,29,–,346 ± 9 µM,30 ± 5 µM,–,–,–,–,0%,4 ± 1 µM,87,12 ± 5 µM,"LD50 without chorion (zebrafish embryos; dechorionated zebrafish embryos, 72 h incubation): 61 ± 2 µM; LD50 with chorion (zebrafish embryos; zebrafish embryos with chorion): > 100 µM; Reduction of the parasitemia (T. cruzi): 70%; Amastigotes in infected Vero cell culture after treatment (T. cruzi amastigotes): cytosol without amastigotes; inhibition at 100 µM [11]: 0%; inhibition at 100 µM (cruzipain [12]; at 100 µM, read-out: Percentage of Inhibition Cruzipain): 100%; IC50 (cruzipain [12]; pool of cruzipain isoforms obtained from T. cruzi, read-out: IC50 ± SD Cruzipain): 4.3 µM"
O=C1/C(=C/C=C/c2ccco2)CCC/C1=C\C=C\c1ccco1 [HIT2],0.6 ± 0.2 µM,–,–,23,17 ^c,160 ± 9 µM,10 ± 2 µM,100,86 nM,80,< 25 µM,100%,13 ± 7 µM,12,7 ± 1 µM,–
